Results from patent US20230142062A1, “THE APPLICATION OF ALOESIN IN THE PREPARATION OF PRODUCTS FOR PREVENTING OR TREATING OBESITY” (HAINAN MEDICAL UNIVERSITY, priority 2020, published 2023).

Legend:
Format in all cases: cell-based, mouse
3T3-L1 preadipocytes [1] = assay: MTT cell viability of 3T3-L1 preadipocytes; settings: 15 and 30 μM aloesin, 24 h and 48 h
Method: (§1) Mouse 3T3-L1 preadipocytes were inoculated with high glucose culture medium (H-DMEM, Hyclon) containing 10% fetal bovine serum (Gibco) and antibiotics (100 U/mL penicillin G and […] streptomycin) at a density of 1×10^4 /mL in an incubator at 37° C. and 5% CO2 for 72 hours. In order to induce the differentiation of 3T3-L1 preadipocytes, when 80% cells are fused, on day 0, growth medium (GM) containing 10% fetal bovine serum, 10 μg/mL insulin (sigma), 1 μM dexamethasone (sigma), 0.5 mM isobutyl-1-Methylxanthine (sigma) was added therein. On the second day, the medium was replaced with a high-glycemic medium containing 10% calf serum and 10 μg/mL insulin. On the 10th day, a large number of lipid droplets accumulated during the differentiation of pre-adipocytes.
Cell viability was determined by MTT, 3T3-L1 preadipocytes were seeded in 96-well plates at a density of 1×10^4 /mL, cultured in an incubator for 24 hours, and then replaced with a medium respectively containing 10, 15, 30 and 60 μM aloesin to continuously cultivate for 24 h or 48 h. 0.5% MTT was added to the cells, after incubating for 1 hour at 37° C., the MTT solution was removed, and DMSO was added to dissolve. The absorbance at 570 nm was measured using an enzyme-labeled instrument (Molecular Devices, CA, USA). Cell viability (%) is expressed as a percentage relative to untreated control cells.

3T3-L1 preadipocytes [2] = assay: Differentiation of preadipocytes after aloesin pretreatment (Oil Red O staining); settings: pretreated with 15 and 30 μM for 24 h and 48 h, then differentiated for 10 days
Method: as §1
(§2) The differentiated adipocytes were washed 3 times with PBS, fixed with 10% formaldehyde for 1 hour, then washed 3 times with PBS again, dried for 15 to 30 minutes and stained with Oil Red O working solution for 2 hours. Wash 2 times and 3 times with 60% isopropanol (IPA) and double distilled water respectively. A Zeiss fluorescence microscope (Tokyo, Japan) was used to collect images. 100% IPA extracts Oil Red O, and the absorbance at 490 nm was measured.
3T3-L1 pre-adipocytes were pre-incubated by the aloesin with concentration of 15 and 30 μM for 24 h and 48 h, respectively. […]

3T3-L1 adipocytes = assay: Lipid accumulation in 3T3-L1 adipocytes (Oil Red O staining); settings: 15 and 30 μM
Method: as §1, §2
After 3T3-L1 preadipocytes were induced to differentiate into adipocytes, aloesin (15 and 30 μM) was added to the adipocytes and cultured for 24 h and 48 h respectively.

UCP-1 = assay: Real-time quantitative PCR, UCP-1 mRNA in 3T3-L1 adipocytes; settings: qPCR
Method: (§3) Total RNA extraction reagent (TIANGEN, China) was used to extract total RNA from 3T3-L1 adipocytes. Use 1st strand cDNA kit (Vazyme biotechnology) for reverse transcription into cDNA. SYBR Green PCR Master Mix Kit (Monad, China) reagent and CFX-1000 Touch instrument ([…]) were used to detect the mRNA level of adipocyte browning genes (Ucp-1 and PRDM16) and transcription factors (Fabp, Ppar-γ and C-EBPα). The following conditions were used for reverse transcription: 5 min at 25° C., 15 min at 50° C., and 5 min at 85° C. Amplification: initial denaturation at 95° C. for 30 seconds, followed by denaturation at 95° C. for 5 seconds and 59° C. for 30 seconds (40 cycles). The β-actin was used as a reference gene to standardize the qPCR reaction. The relative expression of genes was calculated based on the average Ct value between samples. Relative expression level=2^{[Cttarget gene−Ct (β-actin)]aloesin treatment group−[Cttarget gene−Ct(β-actin)] 3T3-L1adipocyte]}.

PRDM16 = assay: Real-time quantitative PCR, PRDM16 mRNA in 3T3-L1 adipocytes; settings: qPCR
Method: as §3

C-EBPα = assay: Real-time quantitative PCR, C-EBPα mRNA in 3T3-L1 adipocytes; settings: 15 and 30 μM, qPCR
Method: as §3

FABP = assay: Real-time quantitative PCR, FABP mRNA in 3T3-L1 adipocytes; settings: 15 and 30 μM, qPCR
Method: as §3

PPAR-γ = assay: Real-time quantitative PCR, PPAR-γ mRNA in 3T3-L1 adipocytes; settings: 15 and 30 μM, qPCR
Method: as §3

adiponectin [3] = assay: Real-time quantitative PCR, adiponectin mRNA in 3T3-L1 adipocytes; settings: 15 μM, qPCR
adiponectin [4] = assay: ELISA, adiponectin in supernatant of 3T3-L1 adipocytes; settings: 15 μM, 48 hours
Method: (§4) The 3T3-L1 adipocytes were treated with aloesin for 48 hours, then the supernatant was collected, and the levels of adiponectin and IL-1β in the supernatant were detected with an ELISA kit (Proteintech, China). The ELISA reagent operation was carried out according to the manufacturer's instructions.

IL-1β = assay: ELISA, IL-1β in supernatant of 3T3-L1 adipocytes; settings: 15 and 30 μM, 48 hours
Method: as §4

CC(=O)Cc1cc(=O)c2c(C)cc(O)c([C@@H]3O[C@H](CO)[C@@H](O)[C@H](O)[C@H]3O)c2o1 [aloesin]
pre-adipocytes viability (3T3-L1 preadipocytes [1]): did not influence | differentiation of 3T3-L1 preadipocytes (3T3-L1 preadipocytes [2]): did not affect | lipid accumulation of adipocytes (3T3-L1 adipocytes; 48 h, compared with the control group): significantly reduce | lipid accumulation in 3T3-L1 adipocytes (3T3-L1 adipocytes; treatment for 24 hours): did not affect | expression of browning gene UCP-1 (mRNA) (UCP-1): increase | expression of browning gene PDRM16 (mRNA) (PRDM16): increase | expression of the transcription factor C-EBPα (mRNA) (C-EBPα): increase | expression of FABP (mRNA) (FABP): did not affect | expression of PPAR-γ (mRNA) (PPAR-γ): did not affect | mRNA expression of adiponectin in adipocytes (adiponectin [3]): enhance | release of adiponectin in adipocytes (adiponectin [4]): enhance | release of IL-1β in adipocytes (IL-1β): reduce
